The target of data set [1] is T1, human adenosine A1R (Homo sapiens, UniProt P30542).
T1 construct: expressed in transfected cells; host or cells: CHO cells
T1 sequence (P30542 1-326): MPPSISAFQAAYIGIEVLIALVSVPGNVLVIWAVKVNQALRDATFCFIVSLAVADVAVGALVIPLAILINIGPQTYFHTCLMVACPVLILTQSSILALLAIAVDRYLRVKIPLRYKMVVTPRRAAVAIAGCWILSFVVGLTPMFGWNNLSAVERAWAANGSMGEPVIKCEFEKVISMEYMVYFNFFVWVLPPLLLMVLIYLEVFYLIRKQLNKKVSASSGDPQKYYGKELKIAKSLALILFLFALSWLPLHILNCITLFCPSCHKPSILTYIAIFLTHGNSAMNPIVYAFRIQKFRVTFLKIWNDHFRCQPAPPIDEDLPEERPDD
Nature of the data set: Radioligand binding at human adenosine A1 receptor vs. [3H]CCPA. The following applies: for inhibition at 1 µM: CHO cells, read-out: A1R vs. [³H]CCPA % Inhibition ± SEM at 1 µM; for Ki: human recombinant receptor in CHO cells, read-out: A1R vs. [³H]CCPA Ki ± SEM. The procedure: (§1) Affinities for adenosine receptors were evaluated in radioligand binding assays as previously described. Human adenosine receptors were stably expressed in CHO cells. The following radioligands were used: [^3H]2-chloro-N^6-cyclopentyladenosine ([^3H]CCPA) for A1R; [^3H]3-(3-hydroxypropyl)-7-methyl-8-(m-methoxystyryl)-1-propargylxanthine ([^3H]MSX-2) for A2AR; [^3H]8-(4-(4-(4-chlorophenyl)piperazine-1-sulfonyl)phenyl)-1-propylxanthine ([^3H]PSB-603) for A2BR; [^3H]phenyl-8-ethyl-4-methyl-(8R)-4,5,7,8-tetrahydro-1H-imidazo [2,1-i]purine-5-one ([^3H]PSB-11) for A3R. Initially, compounds were tested at a concentration of 1 µM. […] At least three independent experiments were performed. Data were analyzed using GraphPad PRISM version 5.0 or higher (Graph Pad, San Diego, CA, USA). Ki were calculated using the Cheng–Prusoff equation.

Data set [2] has as its target T2, human adenosine A2AR (Homo sapiens, UniProt P29274).
T2 construct: expressed in transfected cells; host or cells: CHO cells
Nature of the data set: Radioligand binding at human adenosine A2A receptor vs. [3H]MSX-2. The following applies: for Ki: human recombinant receptor in CHO cells, read-out: A2AR vs. [³H]MSX-2 Ki ± SEM. The method, then:
as §1

Data set [3] addresses T3, human adenosine A2BR (Homo sapiens, UniProt P29275).
T3 construct: expressed in transfected cells; host or cells: CHO cells
T3 sequence (P29275 1-332): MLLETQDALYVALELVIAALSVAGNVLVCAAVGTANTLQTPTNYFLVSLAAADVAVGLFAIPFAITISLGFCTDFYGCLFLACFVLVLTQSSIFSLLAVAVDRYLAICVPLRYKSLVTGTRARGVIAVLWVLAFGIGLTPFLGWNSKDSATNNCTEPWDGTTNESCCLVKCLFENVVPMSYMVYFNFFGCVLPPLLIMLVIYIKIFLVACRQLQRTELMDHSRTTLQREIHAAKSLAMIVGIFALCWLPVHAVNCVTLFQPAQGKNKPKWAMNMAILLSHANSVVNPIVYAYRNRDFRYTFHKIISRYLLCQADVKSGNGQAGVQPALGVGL
Nature of the data set: Radioligand binding at human adenosine A2B receptor vs. [3H]PSB-603. The note with it: for Ki: human recombinant receptor in CHO cells, read-out: A2BR vs. [³H]PSB-603 Ki ± SEM; for inhibition at 1 µM: CHO cells, read-out: A2BR vs. [³H]PSB-603 % Inhibition ± SEM at 1 µM. The procedure: as §1

The target in data set [4] is T4, human adenosine A3R (Homo sapiens, UniProt P0DMS8).
T4 construct: expressed in transfected cells; host or cells: CHO cells
T4 sequence (P0DMS8 1-318): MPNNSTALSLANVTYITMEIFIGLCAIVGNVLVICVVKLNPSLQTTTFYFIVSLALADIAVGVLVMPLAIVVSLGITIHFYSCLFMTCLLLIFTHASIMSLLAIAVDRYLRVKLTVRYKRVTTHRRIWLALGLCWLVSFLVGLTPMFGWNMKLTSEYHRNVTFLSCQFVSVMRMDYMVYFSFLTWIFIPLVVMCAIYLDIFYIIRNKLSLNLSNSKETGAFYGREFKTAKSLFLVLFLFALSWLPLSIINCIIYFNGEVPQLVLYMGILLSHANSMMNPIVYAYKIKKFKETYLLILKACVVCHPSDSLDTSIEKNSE
Nature of the data set: Radioligand binding at human adenosine A3 receptor vs. [3H]PSB-11. The note with it: for inhibition at 1 µM: CHO cells, read-out: A3R vs. [H³]PSB-11 % Inhibition ± SEM at 1 µM; for Ki: human recombinant receptor in CHO cells, read-out: A3R vs. [H³]PSB-11 Ki ± SEM. The method, then: as §1

The target of data set [5] is T5, human MAO B (Homo sapiens, UniProt P27338).
T5 sequence (P27338 1-520): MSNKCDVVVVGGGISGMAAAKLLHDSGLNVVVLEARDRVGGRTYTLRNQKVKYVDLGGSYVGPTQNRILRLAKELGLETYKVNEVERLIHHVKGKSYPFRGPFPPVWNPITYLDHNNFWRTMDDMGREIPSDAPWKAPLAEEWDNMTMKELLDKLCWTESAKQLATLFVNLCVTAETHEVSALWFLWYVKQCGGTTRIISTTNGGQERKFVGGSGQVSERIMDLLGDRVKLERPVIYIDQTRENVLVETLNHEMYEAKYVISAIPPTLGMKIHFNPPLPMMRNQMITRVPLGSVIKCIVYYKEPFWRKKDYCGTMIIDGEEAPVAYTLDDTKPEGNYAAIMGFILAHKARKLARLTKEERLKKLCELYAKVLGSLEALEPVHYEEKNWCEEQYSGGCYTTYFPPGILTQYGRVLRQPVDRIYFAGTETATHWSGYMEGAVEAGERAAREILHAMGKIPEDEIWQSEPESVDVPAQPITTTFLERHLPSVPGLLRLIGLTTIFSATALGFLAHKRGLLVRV
Nature of the data set: Human MAO B inhibition, fluorometric method. It counts as biochemical. The note with it: mean of two independent experiments, read-out: % of hMAO B Inhibition at 1 µM. The method, then:
The compounds were tested twice in duplicates at a concentration of 1 μM by fluorometric method as previously described. Paratyramine (200 μM) was used as a substrate for the enzyme. Safinamide (1 μM; reversible) and rasagiline (1 μM; irreversible) were used as reference inhibitors.

T2 sequence (P29274 whole entry): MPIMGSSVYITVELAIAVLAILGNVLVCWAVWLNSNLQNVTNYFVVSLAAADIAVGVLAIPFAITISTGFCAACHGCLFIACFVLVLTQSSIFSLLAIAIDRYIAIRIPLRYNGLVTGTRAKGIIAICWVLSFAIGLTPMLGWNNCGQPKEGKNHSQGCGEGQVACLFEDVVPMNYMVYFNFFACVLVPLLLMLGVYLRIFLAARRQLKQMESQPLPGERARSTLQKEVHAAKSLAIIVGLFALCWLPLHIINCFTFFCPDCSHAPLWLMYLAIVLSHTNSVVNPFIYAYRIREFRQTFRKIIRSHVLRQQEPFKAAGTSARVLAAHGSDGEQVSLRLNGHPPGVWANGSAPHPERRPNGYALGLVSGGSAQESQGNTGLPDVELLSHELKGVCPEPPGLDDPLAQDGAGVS

The inhibition is the drop in the measured response relative to a control, in per cent. By Ki is commonly meant a dissociation constant, usually derived from enzyme kinetics or from competition with a known ligand. Broadly, the melting point is the temperature, or range, at which the solid turns liquid. `CCCn1c(=O)c2c(nc(NCc3ccccc3Cl)n2C)n(C)c1=O` [compound 5, 8-((2-Chlorobenzyl)amino)-3,7-dimethyl-1-propyl-3,7-dihydro-1H-purine-2,6-dione] had a melting point of 190 to 191 °C. In addition, in data set [1], the inhibition at 1 µM stood at 26% and the Ki was above 1 µM. The Ki in data set [2] came to 0.302 ± 0.034 µM. The Ki in data set [3] came to 0.832 ± 0.133 µM. In addition, in data set [4], the inhibition at 1 µM is 4% and the inhibition constant (Ki) is above 1 µM. The inhibition at 1 µM in data set [5] is 8%.

For `CCCn1c(=O)c2c(nc(NCc3ccccc3Br)n2C)n(C)c1=O` [compound 12, 8-((2-Bromobenzyl)amino)-3,7-dimethyl-1-propyl-3,7-dihydro-1H-purine-2,6-dione], the melting point was in the range of 206 to 207 °C. Moreover, in data set [1], the inhibition at 1 µM amounted to 30% and the Ki was above 1 µM. In addition, the Ki in data set [2] was 0.361 ± 0.082 µM. Besides, in data set [3], the inhibition at 1 µM worked out at 33% and the Ki was above 1 µM. Moreover, in data set [4], the inhibition at 1 µM was found to be 8% and the inhibitory constant (Ki) was above 1 µM. In data set [5], the inhibition at 1 µM is 7%.

Molecule `CCCn1c(=O)c2c(nc(NCc3ccccc3F)n2C)n(C)c1=O` [compound 13, 8-((2-Fluorobenzyl)amino)-3,7-dimethyl-1-propyl-3,7-dihydro-1H-purine-2,6-dione] came in with a melting point of 224 to 226 °C. Further, in data set [1], the inhibition at 1 µM turned out to be 32% and the inhibition constant Ki was above 1 µM. In data set [2] (1 µM, CHO cells), the “A2AR vs. [³H]MSX-2 % Inhibition ± SEM at 1 µM” value worked out at 47 ± 2%. Besides, in data set [2], the Ki is above 1 µM. In data set [3], the inhibition at 1 µM is 21% and the Ki was above 1 µM. In addition, in data set [4], the inhibition at 1 µM amounted to 6% and the Ki is above 1 µM. In addition, the inhibition at 1 µM in data set [5] is 15%.

For the molecule `CCCn1c(=O)c2c(nc(NCc3c(F)cccc3Cl)n2C)n(C)c1=O` [compound 14, 8-((2-Chloro-6-fluorobenzyl)amino)-3,7-dimethyl-1-propyl-3,7-dihydro-1H-purine-2,6-dione], the melting point was in the range of 241 to 243 °C. Also, in data set [1], the inhibition at 1 µM worked out at 29% and the inhibition constant (Ki) is above 1 µM. The Ki in data set [2] was determined as 0.124 ± 0.026 µM. For the same molecule, the Ki in data set [3] worked out at 0.687 ± 0.147 µM. Moreover, in data set [4], the inhibition at 1 µM turned out to be 18% and the Ki is above 1 µM. The inhibition at 1 µM in data set [5] was 9%.

Take `CCCn1c(=O)c2c(nc(NCc3cccc(Cl)c3)n2C)n(C)c1=O` [compound 15, 8-((3-Chlorobenzyl)amino)-3,7-dimethyl-1-propyl-3,7-dihydro-1H-purine-2,6-dione]: the melting point lay within 185 to 187 °C. Also, in data set [1], the inhibition at 1 µM came out at 40% and the Ki was above 1 µM. The Ki in data set [2] came out at 0.588 ± 0.074 µM. In data set [3], the inhibition at 1 µM was 34% and the inhibitory constant (Ki) was above 1 µM. In addition, in data set [4], the inhibition at 1 µM turned out to be 0% and the Ki was above 1 µM. For the same molecule, in data set [5], the inhibition at 1 µM is 10%.

With `CCCn1c(=O)c2c(nc(NCc3cccc(Br)c3)n2C)n(C)c1=O` [compound 16, 8-((3-Bromobenzyl)amino)-3,7-dimethyl-1-propyl-3,7-dihydro-1H-purine-2,6-dione], the melting point was 220 to 222 °C. For the same molecule, the Ki in data set [1] worked out at 0.34 ± 0.073 µM. Also, in data set [2], the Ki was 0.254 ± 0.059 µM. Also, in data set [3], the inhibition at 1 µM amounted to 30% and the Ki was above 1 µM. Moreover, in data set [4], the inhibition at 1 µM stood at 11% and the inhibitory constant (Ki) was above 1 µM. Besides, in data set [5], the inhibition at 1 µM was 11%.

`CCCn1c(=O)c2c(nc(NCc3cccc(OC)c3)n2C)n(C)c1=O` [compound 17, 8-((3-methoxybenzyl)amino)-3,7-dimethyl-1-propyl-3,7-dihydro-1H-purine-2,6-dione] displayed a melting point of 173 to 175 °C. Further, in data set [1], the inhibition at 1 µM is 17% and the Ki is above 1 µM. In data set [2], the Ki is 0.605 ± 0.12 µM. In data set [3], the inhibition at 1 µM was 20% and the Ki is above 1 µM. Also, in data set [4], the inhibition at 1 µM was determined as 6% and the Ki was above 1 µM. Also, the inhibition at 1 µM in data set [5] is 5%.

For `CCCn1c(=O)c2c(nc(NCc3ccc(OC)c(OC)c3)n2C)n(C)c1=O` [compound 18, 8-((3,4-dimethoxybenzyl)amino)-3,7-dimethyl-1-propyl-3,7-dihydro-1H-purine-2,6-dione], the melting point lay within 200 to 201 °C. Besides, in data set [1], the inhibition at 1 µM was 7% and the inhibitory constant (Ki) was above 1 µM. Besides, the Ki in data set [2] stood at 0.773 ± 0.127 µM. Besides, in data set [3], the inhibition at 1 µM worked out at 17% and the Ki is above 1 µM. In data set [4], the inhibition at 1 µM is -5% and the inhibitory constant (Ki) was above 1 µM. The inhibition at 1 µM in data set [5] turned out to be 2%.

In turn, `C#CCn1c(=O)c2c(nc(NCc3ccccc3Br)n2C)n(C)c1=O` [compound 20, 8-((2-Bromobenzyl)amino)-3,7-dimethyl-1-(prop-2-yn-1-yl)-3,7-dihydro-1H-purine-2,6-dione] gave a melting point of 210 to 212 °C. Further, in data set [1], the inhibition at 1 µM came to 44% and the inhibition constant Ki is above 1 µM. Moreover, the Ki in data set [2] was 0.137 ± 0.035 µM. For the same molecule, in data set [3], the inhibition at 1 µM came to 25% and the Ki is above 1 µM. For the same molecule, in data set [4], the inhibition at 1 µM amounted to 13% and the inhibitory constant (Ki) is above 1 µM. In data set [5], the inhibition at 1 µM amounted to 32%.

Take `C#CCn1c(=O)c2c(nc(NCc3c(F)cccc3Cl)n2C)n(C2CC2)c1=O` [compound 29, 8-((2-Chloro-6-fluorobenzyl)amino)-3-cyclopropyl-7-methyl-1-(prop-2-yn-1-yl)-3,7-dihydro-1H-purine-2,6-dione]: the melting point lay within 186 to 187 °C. For the same molecule, the inhibition constant Ki in data set [1] was determined as 0.078 ± 0.009 µM. The Ki in data set [2] is 0.204 ± 0.038 µM. Also, in data set [3], the inhibition at 1 µM worked out at 16% and the Ki was above 1 µM. For the same molecule, in data set [4], the inhibition at 1 µM turned out to be 16% and the inhibition constant Ki is above 1 µM.
